Data: the NIST ThermoML archive (doi:10.1016/j.fluid.2012.11.039)
Numbers after ± are expanded uncertainties.

Experiments:
[1] = Liquid, Vibrating tube method
[2] = xn = mol fraction of the nth substance listed; settings: Liquid, Vibrating tube method

CCCCCCCCCC [decane]
[1], 373.2 K
Settings	mass density [kg/m3]
100 kPa	667.1 ± 0.3
1000 kPa	668.4 ± 0.4
2000 kPa	669.6 ± 0.4
3000 kPa	670.9 ± 0.4
4000 kPa	672.1 ± 0.4
5000 kPa	673.4 ± 0.4
6000 kPa	674.5 ± 0.4
7000 kPa	675.7 ± 0.4
8000 kPa	676.9 ± 0.4
9000 kPa	678.1 ± 0.4
10000 kPa	679.2 ± 0.4

CCCCCCCCCC [decane] + CCCCCCCCCCCCCCCCCC
[2], 373.2 K, x2 = 0
Settings	mass density [kg/m3]
100 kPa	667.1 ± 0.3
1000 kPa	668.4 ± 0.4
2000 kPa	669.6 ± 0.4
3000 kPa	670.9 ± 0.4
4000 kPa	672.1 ± 0.4
5000 kPa	673.4 ± 0.4
6000 kPa	674.5 ± 0.4
7000 kPa	675.7 ± 0.4
8000 kPa	676.9 ± 0.4
9000 kPa	678.1 ± 0.4
10000 kPa	679.2 ± 0.4

CCCCCCCCCCCCCCCCCC [octadecane]
[1], 372.9 K
Settings	mass density [kg/m3]
1010 kPa	728.2 ± 0.4
2010 kPa	729.2 ± 0.4
3020 kPa	730.2 ± 0.4
4000 kPa	731.1 ± 0.4
5000 kPa	732 ± 0.4
6020 kPa	732.9 ± 0.4
7010 kPa	733.8 ± 0.4
8000 kPa	734.7 ± 0.4
8990 kPa	735.6 ± 0.4
9980 kPa	736.4 ± 0.4

CCCCCCCCCCCCCCCCCC [octadecane] + CCCCCCCCCC
[2]
Settings	mass density [kg/m3]
372.7 K, 100 kPa, x1 = 0.25	689.9 ± 0.3
372.7 K, 1010 kPa, x1 = 0.25	691 ± 0.4
372.7 K, 2010 kPa, x1 = 0.25	692.2 ± 0.4
372.7 K, 3020 kPa, x1 = 0.25	693.3 ± 0.4
372.7 K, 4010 kPa, x1 = 0.25	694.4 ± 0.4
372.7 K, 5010 kPa, x1 = 0.25	695.5 ± 0.4
372.7 K, 6010 kPa, x1 = 0.25	696.6 ± 0.4
372.7 K, 7010 kPa, x1 = 0.25	697.7 ± 0.4
372.7 K, 8010 kPa, x1 = 0.25	698.7 ± 0.4
372.7 K, 9020 kPa, x1 = 0.25	699.8 ± 0.4
372.7 K, 10010 kPa, x1 = 0.25	700.8 ± 0.4
372.8 K, 100 kPa, x1 = 0.5	705.7 ± 0.4
372.8 K, 100 kPa, x1 = 0.75	717.8 ± 0.4
372.8 K, 1020 kPa, x1 = 0.5	706.8 ± 0.4
372.8 K, 1050 kPa, x1 = 0.75	718.9 ± 0.4
372.8 K, 2020 kPa, x1 = 0.5	707.8 ± 0.4
372.8 K, 2020 kPa, x1 = 0.75	719.9 ± 0.4
372.8 K, 2940 kPa, x1 = 0.5	708.7 ± 0.4
372.8 K, 3000 kPa, x1 = 0.75	720.8 ± 0.4
372.8 K, 4000 kPa, x1 = 0.75	721.8 ± 0.4
372.8 K, 4010 kPa, x1 = 0.5	709.9 ± 0.4
372.8 K, 5010 kPa, x1 = 0.5	710.9 ± 0.4
372.8 K, 5010 kPa, x1 = 0.75	722.8 ± 0.4
372.8 K, 6000 kPa, x1 = 0.5	711.9 ± 0.4
372.8 K, 6000 kPa, x1 = 0.75	723.7 ± 0.4
372.8 K, 7000 kPa, x1 = 0.5	712.9 ± 0.4
372.8 K, 7010 kPa, x1 = 0.75	724.6 ± 0.4
372.8 K, 8000 kPa, x1 = 0.5	713.9 ± 0.4
372.8 K, 8000 kPa, x1 = 0.75	725.5 ± 0.4
372.8 K, 8990 kPa, x1 = 0.75	726.4 ± 0.4
372.8 K, 9010 kPa, x1 = 0.5	714.8 ± 0.4
372.8 K, 10010 kPa, x1 = 0.5	715.8 ± 0.4
372.8 K, 10010 kPa, x1 = 0.75	727.4 ± 0.4
372.9 K, 1010 kPa, x1 = 1	728.2 ± 0.4
372.9 K, 2010 kPa, x1 = 1	729.2 ± 0.4
372.9 K, 3020 kPa, x1 = 1	730.2 ± 0.4
372.9 K, 4000 kPa, x1 = 1	731.1 ± 0.4
372.9 K, 5000 kPa, x1 = 1	732 ± 0.4
372.9 K, 6020 kPa, x1 = 1	732.9 ± 0.4
372.9 K, 7010 kPa, x1 = 1	733.8 ± 0.4
372.9 K, 8000 kPa, x1 = 1	734.7 ± 0.4
372.9 K, 8990 kPa, x1 = 1	735.6 ± 0.4
372.9 K, 9980 kPa, x1 = 1	736.4 ± 0.4
